Laboratory results published in patent US12415794B2 (Edgewise Therapeutics, Inc., priority 2018, dated 2025).

Tests used:
[1] = target: T1, cardiac myofibrils (myosin ATPase); test: Cardiac Myofibril ATPase Assay (counter screen); assay type: biochemical; conditions: myofibrils 1.0 mg/mL, KCl omitted
T1 construct: frozen myofibril pellets obtained from cardiac tissue; from tissue
Outline: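 Frozen cardiac myofibrils at 1.0 mg/mL final, KCl omitted, in a PK-LDH coupled ATPase assay; ADP production tracked as NADH loss by absorbance at 340 nm. Inhibition taken as reduced rate relative to vehicle controls, with IC50 derived.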

[2] = target: skeletal myofibrils (myosin ATPase); test: Skeletal Myofibril ATPase Assay; assay type: biochemical
Outline: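 Skeletal myofibril ATPase measured by PK-LDH coupled NADH depletion, absorbance 340 nm read every 1.5-2 min over 45 min. Max−min rate normalized to 1% DMSO vehicle as 100%; IC50 from four-parameter logistic fit with bottom ≥0. Cardiac myofibrils used as counter-screen.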

T1 sequence (P12883 whole entry): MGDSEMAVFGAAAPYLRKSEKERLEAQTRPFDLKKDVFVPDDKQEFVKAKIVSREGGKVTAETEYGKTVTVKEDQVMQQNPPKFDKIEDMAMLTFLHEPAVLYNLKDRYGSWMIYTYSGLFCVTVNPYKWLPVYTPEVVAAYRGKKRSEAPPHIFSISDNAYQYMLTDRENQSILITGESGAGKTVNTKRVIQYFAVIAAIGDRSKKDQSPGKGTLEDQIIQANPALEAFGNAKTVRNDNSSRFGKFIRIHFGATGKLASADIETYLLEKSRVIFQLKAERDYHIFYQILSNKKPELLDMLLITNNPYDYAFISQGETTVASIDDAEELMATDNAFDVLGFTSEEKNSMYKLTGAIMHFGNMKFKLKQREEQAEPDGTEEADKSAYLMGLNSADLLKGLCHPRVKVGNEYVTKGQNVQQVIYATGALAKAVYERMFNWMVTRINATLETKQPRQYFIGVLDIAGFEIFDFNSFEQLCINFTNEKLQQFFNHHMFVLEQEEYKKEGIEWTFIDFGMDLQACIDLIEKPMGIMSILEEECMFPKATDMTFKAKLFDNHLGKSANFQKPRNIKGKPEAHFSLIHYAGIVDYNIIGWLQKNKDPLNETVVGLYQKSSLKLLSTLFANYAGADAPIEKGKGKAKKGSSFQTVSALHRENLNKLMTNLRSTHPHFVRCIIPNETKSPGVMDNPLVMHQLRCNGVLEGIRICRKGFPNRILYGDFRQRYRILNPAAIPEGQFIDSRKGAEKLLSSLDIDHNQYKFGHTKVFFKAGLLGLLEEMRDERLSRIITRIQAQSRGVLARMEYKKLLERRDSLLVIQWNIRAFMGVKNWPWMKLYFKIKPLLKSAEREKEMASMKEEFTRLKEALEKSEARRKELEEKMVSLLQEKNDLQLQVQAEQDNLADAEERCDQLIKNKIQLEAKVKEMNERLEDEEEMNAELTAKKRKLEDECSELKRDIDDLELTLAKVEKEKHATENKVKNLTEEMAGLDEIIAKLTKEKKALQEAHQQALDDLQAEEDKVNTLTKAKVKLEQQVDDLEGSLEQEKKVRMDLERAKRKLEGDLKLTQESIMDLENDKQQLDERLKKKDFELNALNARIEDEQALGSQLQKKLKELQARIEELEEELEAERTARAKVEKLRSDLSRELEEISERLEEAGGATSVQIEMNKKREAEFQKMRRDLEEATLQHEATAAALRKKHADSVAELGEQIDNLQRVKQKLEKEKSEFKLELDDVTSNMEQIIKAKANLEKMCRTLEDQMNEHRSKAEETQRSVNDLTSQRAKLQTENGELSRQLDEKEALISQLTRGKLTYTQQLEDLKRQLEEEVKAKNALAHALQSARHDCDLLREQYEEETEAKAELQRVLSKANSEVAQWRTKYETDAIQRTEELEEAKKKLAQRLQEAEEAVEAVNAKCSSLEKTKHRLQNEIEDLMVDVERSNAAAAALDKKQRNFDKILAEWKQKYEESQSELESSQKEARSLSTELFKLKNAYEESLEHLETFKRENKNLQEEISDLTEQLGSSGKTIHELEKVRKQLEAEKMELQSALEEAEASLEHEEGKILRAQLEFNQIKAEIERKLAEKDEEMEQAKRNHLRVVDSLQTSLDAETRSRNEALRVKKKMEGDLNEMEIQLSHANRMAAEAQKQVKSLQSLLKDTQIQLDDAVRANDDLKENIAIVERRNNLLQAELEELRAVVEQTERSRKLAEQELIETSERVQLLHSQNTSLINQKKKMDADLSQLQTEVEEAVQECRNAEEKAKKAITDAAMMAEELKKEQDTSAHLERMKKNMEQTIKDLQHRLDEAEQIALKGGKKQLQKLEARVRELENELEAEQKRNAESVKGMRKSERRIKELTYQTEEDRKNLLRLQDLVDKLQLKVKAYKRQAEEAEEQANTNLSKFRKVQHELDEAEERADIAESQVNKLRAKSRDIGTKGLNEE
T1 sequence (P08590 whole entry partner): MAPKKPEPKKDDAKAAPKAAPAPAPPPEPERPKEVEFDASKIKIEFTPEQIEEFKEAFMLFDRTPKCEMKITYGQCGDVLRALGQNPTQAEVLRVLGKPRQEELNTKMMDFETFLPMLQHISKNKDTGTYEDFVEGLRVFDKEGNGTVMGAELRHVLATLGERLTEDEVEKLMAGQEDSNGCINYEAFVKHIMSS
T1 sequence (P10916 whole entry partner): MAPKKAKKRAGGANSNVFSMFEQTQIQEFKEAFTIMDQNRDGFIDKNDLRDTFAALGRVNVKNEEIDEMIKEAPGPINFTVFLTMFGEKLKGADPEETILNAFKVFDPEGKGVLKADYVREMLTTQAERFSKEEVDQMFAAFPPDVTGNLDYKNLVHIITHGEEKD

Compound | IC50 ([1]; Table 5C) [µM] | IC50 ([2]; Table 4C) [µM] | further results
CC(CCNC(=O)Cn1nc(-c2ccccc2)ccc1=O)c1ccccc1 (stereo not drawn) [IIIc-53, 2-(6-oxo-3-phenylpyridazin-1(6H)-yl)-N-(3-phenylbutyl)acetamide] | > 100 | 10 to 100 | –
Cc1ccc(-c2ccc(=O)n(CC(=O)NC3CCCC3)n2)cc1 [IIIc-5, N-cyclopentyl-2-(6-oxo-3-(p-tolyl)pyridazin-1(6H)-yl)acetamide] | > 100 | 10 to 100 | –
O=C(Cn1nc(-c2ccc(OCC(F)(F)F)cc2)ccc1=O)N1CCC1c1ccccc1 (stereo not drawn) [II-23, 2-(2-oxo-2-(2-phenylazetidin-1-yl)ethyl)-6-(4-(2,2,2-trifluoroethoxy)phenyl)pyridazin-3(2H)-one] | – | – | IC50 ([1]; Table 5B): > 100 µM; IC50 ([2]; Table 4B): < 10 µM
CCNC(=O)Cn1nc(-c2ccc(OCCC(F)(F)F)nc2)ccc1=O [Compound I-10, N-ethyl-2-(6-oxo-3-(6-(3,3,3-trifluoropropoxy)pyridin-3-yl)pyridazin-1(6H)-yl)acetamide] | – | – | IC50 ([1]; Table 5A): > 100 µM; IC50 ([2]; Table 4A): 10 to 100 µM
CCC1CCC(CNC(=O)Cn2nc(-c3ccccc3)ccc2=O)CC1 (stereo not drawn) [IIIc-55, N-((4-ethylcyclohexyl)methyl)-2-(6-oxo-3-phenylpyridazin-1(6H)-yl)acetamide] | > 100 | 10 to 100 | –
O=C(Cn1nc(-c2ccc(OC(F)F)nc2)ccc1=O)NC1(c2ccccc2)CCC1 [Compound I-68, 2-(3-(6-(difluoromethoxy)pyridin-3-yl)-6-oxopyridazin-1(6H)-yl)-N-(1-phenylcyclobutyl)acetamide] | – | – | IC50 ([1]; Table 5A): > 100 µM; IC50 ([2]; Table 4A): < 10 µM
COc1ccc(-c2ccc(=O)n(CC(=O)NCc3ccccc3)n2)cc1 [IIIb-20, N-benzyl-2-(3-(4-methoxyphenyl)-6-oxopyridazin-1(6H)-yl)acetamide] | > 100 | 10 to 100 | –
CCNC(=O)Cn1nc(-c2ccc(OC3COC3)nc2)ccc1=O [Compound I-25, N-ethyl-2-(3-(6-(oxetan-3-yloxy)pyridin-3-yl)-6-oxopyridazin-1(6H)-yl)acetamide] | – | – | IC50 ([1]; Table 5A): > 100 µM; IC50 ([2]; Table 4A): > 100 µM
CN(Cc1ccccc1)C(=O)Cn1nc(-c2ccc(Cl)cc2)ccc1=O [IIIc-32, N-benzyl-2-(3-(4-chlorophenyl)-6-oxopyridazin-1(6H)-yl)-N-methylacetamide] | > 100 | 10 to 100 | –
COc1ccc(-c2ccc(=O)n(CC(=O)NCc3cccc(Cl)c3)n2)cc1 [IIIa-8, N-(3-chlorobenzyl)-2-(3-(4-methoxyphenyl)-6-oxopyridazin-1(6H)-yl)acetamide] | > 100 | < 10 | –
CC1(NC(=O)Cn2nc(-c3ccc(OC(F)F)nc3)ccc2=O)CCC1 [Compound I-15, 2-(3-(6-(difluoromethoxy)pyridin-3-yl)-6-oxopyridazin-1(6H)-yl)-N-(1-methylcyclobutyl)acetamide] | – | – | IC50 ([1]; Table 5A): > 100 µM; IC50 ([2]; Table 4A): 10 to 100 µM
Cn1ccc2c(NC(=O)Cn3nc(-c4ccc(F)cc4)ccc3=O)cccc21 [IIIc-16, 2-(3-(4-fluorophenyl)-6-oxopyridazin-1(6H)-yl)-N-(1-methyl-1H-indol-4-yl)acetamide] | > 100 | < 10 | –
COc1ccc(-c2ccc(=O)n(CC(=O)NCC3CCCCC3)n2)cc1 [IIIa-4] | > 100 | < 10 | –
CCNC(=O)Cn1nc(-c2ccc(N3CC(F)(F)C3)nc2)ccc1=O [Compound I-6, 2-(3-(6-(3,3-difluoroazetidin-1-yl)pyridin-3-yl)-6-oxopyridazin-1(6H)-yl)-N-ethylacetamide] | – | – | IC50 ([1]; Table 5A): > 100 µM; IC50 ([2]; Table 4A): 10 to 100 µM
O=C(Cn1nc(-c2ccc(Cl)cc2)ccc1=O)Nc1ccccc1F [IIIc-27, 2-(3-(4-chlorophenyl)-6-oxopyridazin-1(6H)-yl)-N-(2-fluorophenyl)acetamide] | > 100 | 10 to 100 | –
O=C(Cn1nc(-c2ccc(Cl)cc2)ccc1=O)Nc1ccccc1Cl [IIIc-38, N-(2-chlorophenyl)-2-(3-(4-chlorophenyl)-6-oxopyridazin-1(6H)-yl)acetamide] | > 100 | < 10 | –
O=C(Cn1nc(-c2ccc3c(c2)OCCCO3)ccc1=O)NC1CCCCCC1 [IIIb-24, N-cycloheptyl-2-(3-(3,4-dihydro-2H-benzo[b][1,4]dioxepin-7-yl)-6-oxopyridazin-1(6H)-yl)acetamide] | > 100 | 10 to 100 | –
COc1ccc(-c2ccc(=O)n(CC(=O)NCCC(C)C)n2)cc1 [IIIb-48, N-isopentyl-2-(3-(4-methoxyphenyl)-6-oxopyridazin-1(6H)-yl)acetamide] | > 100 | > 100 | –
COc1ccc(-c2ccc(=O)n(CC(=O)NC3CCCC3)n2)cc1 [IIIb-23, N-cyclopentyl-2-(3-(4-methoxyphenyl)-6-oxopyridazin-1(6H)-yl)acetamide] | > 100 | 10 to 100 | –
COc1ccc(-c2ccc(=O)n(CC(=O)NCc3ccccc3)n2)c(F)c1 [IIIb-54, N-benzyl-2-(3-(2-fluoro-4-methoxyphenyl)-6-oxopyridazin-1(6H)-yl)acetamide] | > 100 | > 100 | –

Compound | IC50 ([1]; Table 5C) [µM] | IC50 ([2]; Table 4C) [µM] | further results
COc1ccc(-c2ccc(=O)n(CC(=O)NCc3ccc(Cl)cc3)n2)cc1 [IIIa-17, N-(4-chlorobenzyl)-2-(3-(4-methoxyphenyl)-6-oxopyridazin-1(6H)-yl)acetamide] | > 100 | < 10 | –
COc1ccc(-c2ccc(=O)n(CC(=O)NCc3ccccc3Cl)n2)cn1 [Compound I-5, N-(2-chlorobenzyl)-2-(3-(6-methoxypyridin-3-yl)-6-oxopyridazin-1(6H)-yl)acetamide] | – | – | IC50 ([1]; Table 5A): > 100 µM; IC50 ([2]; Table 4A): < 10 µM
CCNC(=O)Cn1nc(-c2ccc(NC3CCC3)nc2)ccc1=O [Compound I-62, 2-(3-(6-(cyclobutylamino)pyridin-3-yl)-6-oxopyridazin-1(6H)-yl)-N-ethylacetamide] | – | – | IC50 ([1]; Table 5A): > 100 µM; IC50 ([2]; Table 4A): < 10 µM
COc1ccccc1NC(=O)Cn1nc(-c2ccc(Cl)cc2)ccc1=O [IIIc-23, 2-(3-(4-chlorophenyl)-6-oxopyridazin-1(6H)-yl)-N-(2-methoxyphenyl)acetamide] | > 100 | < 10 | –
COc1ccc(-c2ccc(=O)n(CC(=O)Nc3cccc4c3ccn4C)n2)cc1 [IIIb-4, 2-(3-(4-methoxyphenyl)-6-oxopyridazin-1(6H)-yl)-N-(1-methyl-1H-indol-4-yl)acetamide] | 10 to 100 | < 10 | –
CCNC(=O)Cn1nc(-c2ccc(OC(C)C)nc2)ccc1=O [Compound I-27, N-ethyl-2-(3-(6-isopropoxypyridin-3-yl)-6-oxopyridazin-1(6H)-yl)acetamide] | – | – | IC50 ([1]; Table 5A): > 100 µM; IC50 ([2]; Table 4A): > 100 µM
O=C(Cn1nc(-c2ccccc2)ccc1=O)Nc1ccc2c(c1)OCCO2 [IIIc-64, N-(2,3-dihydrobenzo[b][1,4]dioxin-6-yl)-2-(6-oxo-3-phenylpyridazin-1(6H)-yl)acetamide] | > 100 | > 100 | –
COc1ccc(-c2ccc(=O)n(CC(=O)NCc3ccon3)n2)cc1 [IIIa-26] | > 100 | 10 to 100 | –
CCNC(=O)Cn1nc(-c2ccc(Oc3ccc(F)cc3)nc2)ccc1=O [Compound I-21, N-ethyl-2-(3-(6-(4-fluorophenoxy)pyridin-3-yl)-6-oxopyridazin-1(6H)-yl)acetamide] | – | – | IC50 ([1]; Table 5A): > 100 µM; IC50 ([2]; Table 4A): 10 to 100 µM
COc1ccc(-c2ccc(=O)n(CC(=O)NCc3cc(Cl)ccc3Cl)n2)cc1 | > 100 | < 10 | –
CCNC(=O)Cn1nc(-c2ccc(N3CC4(COC4)C3)nc2)ccc1=O [Compound I-31, 2-(3-(6-(2-oxa-6-azaspiro[3.3]heptan-6-yl)pyridin-3-yl)-6-oxopyridazin-1(6H)-yl)-N-ethylacetamide] | – | – | IC50 ([1]; Table 5A): > 100 µM; IC50 ([2]; Table 4A): > 100 µM
COc1ccc(-c2ccc(=O)n(CC(=O)NCc3ccc(F)cc3)n2)c(F)c1 [IIIb-46, 2-(3-(2-fluoro-4-methoxyphenyl)-6-oxopyridazin-1(6H)-yl)-N-(4-fluorobenzyl)acetamide] | > 100 | > 100 | –
COc1ccc(-c2ccc(=O)n(CC(=O)Nc3cc(OC)ccc3OC)n2)cc1 [IIIb-25, N-(2,5-dimethoxyphenyl)-2-(3-(4-methoxyphenyl)-6-oxopyridazin-1(6H)-yl)acetamide] | > 100 | 10 to 100 | –
COc1ccc(-c2ccc(=O)n(CC(=O)NCc3ccccc3Cl)n2)c(C)c1 [IIIa-22, N-(2-chlorobenzyl)-2-(3-(4-methoxy-2-methylphenyl)-6-oxopyridazin-1(6H)-yl)acetamide] | > 100 | 10 to 100 | –
O=C(Cn1nc(-c2ccc(Cl)cc2)ccc1=O)Nc1cccc2[nH]ccc12 [IIIc-19, 2-(3-(4-chlorophenyl)-6-oxopyridazin-1(6H)-yl)-N-(1H-indol-4-yl)acetamide] | > 100 | < 10 | –
CCNC(=O)Cn1nc(-c2ccc(OCC3(F)COC3)nc2)ccc1=O [Compound I-23, N-ethyl-2-(3-(6-((3-fluorooxetan-3-yl)methoxy)pyridin-3-yl)-6-oxopyridazin-1(6H)-yl)acetamide] | – | – | IC50 ([1]; Table 5A): > 100 µM; IC50 ([2]; Table 4A): 10 to 100 µM
CC(C)NC(=O)Cn1nc(-c2ccc(Br)cc2)ccc1=O [IIIc-40, 2-(3-(4-bromophenyl)-6-oxopyridazin-1(6H)-yl)-N-isopropylacetamide] | > 100 | 10 to 100 | –
O=C(Cn1nc(-c2ccccc2)ccc1=O)NCc1ccccc1Cl [IIIc-47, N-(2-chlorobenzyl)-2-(6-oxo-3-phenylpyridazin-1(6H)-yl)acetamide] | > 100 | 10 to 100 | –
CC(C)c1cccc(NC(=O)Cn2nc(-c3ccc4c(c3)OCCCO4)ccc2=O)c1 [IIIb-5, 2-(3-(3,4-dihydro-2H-benzo[b][1,4]dioxepin-7-yl)-6-oxopyridazin-1(6H)-yl)-N-(3-isopropylphenyl) acetamide] | 10 to 100 | < 10 | –
